According to US20250270199A1, “THIAZOLE DERIVATIVES AND METHODS OF USING THE SAME” (Arkansas State University - Jonesboro, priority 2022, published 2025):
≈ marks a conversion by molar mass, not a printed value. Where two headings read alike, the source gives them in different places.

Tests used:
[1] = tested on: S. aureus ATCC 33592 (Sa 92); assay: MIC, broth microdilution, Sa 92; format: cell-based; settings: Staphylococcus aureus, ATCC33592; Table 2, HTM series; read-out: Minimum inhibitory concentration (MIC) Sa 92
Protocol: (§1) The broth microdilution method was utilized to determine MIC values of novel thiazole derivatives against different clinically important Gram-positive bacteria according to the guidelines outlined by the Clinical and Laboratory Standards Institute (CLSI) as reported in our recent papers.^1-5 The starting concentration of compounds for MIC determination was 64 μg/mL serially diluted down the wells and the MIC values were recorded in duplicates in three independent experiments on different days.

[2] = tested on: S. aureus ATCC 33591 (Sa 91); assay: MIC, broth microdilution, Sa 91; format: cell-based; settings: Staphylococcus aureus, ATCC33591; Table 2, HTM series; read-out: Minimum inhibitory concentration (MIC) Sa 91
Protocol: as §1

[3] = tested on: S. aureus subsp. aureus Rosenbach ATCC 25904 (SA Newman); assay: MIC, broth microdilution, SA Newman; format: cell-based; settings: Staphylococcus aureus; Table 2, HTM series; read-out: Minimum inhibitory concentration (MIC) Sa Newman
Protocol: as §1

[4] = tested on: Sa UAMS-1 MRSA ATCC 49230 (Sa UAMS); assay: MIC, broth microdilution, Sa UAMS; format: cell-based, S. aureus; settings: Staphylococcus aureus; Table 2, HTM series; read-out: Minimum inhibitory concentration (MIC) Sa UAMS-1
Protocol: as §1

[5] = tested on: S. aureus ATCC 700699 (Sa 99); assay: MIC, broth microdilution, Sa 99; format: cell-based; settings: for MIC: Staphylococcus aureus, read-out: Minimum inhibitory concentration (MIC) Sa 99; for Minimum inhibitory concentration (MIC) Sa 99: Table 1, HT series
Protocol: as §1

[6] = tested on: E. faecalis ATCC 29212 (Efs 12); assay: MIC, broth microdilution, Efs 12; format: cell-based; settings: for MIC: Enterococcus faecalis, read-out: Minimum inhibitory concentration (MIC) Efs 12; for Minimum inhibitory concentration (MIC) Efs 12: Table 1, HT series
Protocol: as §1

[7] = tested on: S. aureus subsp. aureus Rosenbach BAA-1717 (Sa USA 300); assay: MIC, broth microdilution, Sa USA 300; format: cell-based; settings: Staphylococcus aureus; Table 2, HTM series; read-out: Minimum inhibitory concentration (MIC) Sa USA 300
Protocol: as §1

[8] = tested on: E. faecium ATCC 700221 (Efm 21); assay: MIC, broth microdilution, Efm 21; format: cell-based; settings: Enterococcus faecium, ATCC700221, Table 2, HTM series; read-out: Minimum inhibitory concentration (MIC) Efm 21
Protocol: as §1

[9] = tested on: S. aureus ATCC BAA-2312 (Sa 12); assay: MIC, broth microdilution, Sa 12; format: cell-based; settings: Staphylococcus aureus, ATCCBAA2312; Table 2, HTM series; read-out: Minimum inhibitory concentration (MIC) Sa 12
Protocol: as §1

[10] = tested on: S. epidermidis ATCC 700296 (Se); assay: MIC, broth microdilution, Se; format: cell-based; settings: Staphylococcus epidermidis, ATCC700296; Table 2, HTM series; read-out: Minimum inhibitory concentration (MIC) Se
Protocol: as §1

[11] = tested on: E. faecalis ATCC 51299 (Efs 99); assay: MIC, broth microdilution, Efs 99; format: cell-based; settings: Enterococcus faecalis, ATCC51299; Table 2, HTM series; read-out: Minimum inhibitory concentration (MIC) Efs 99
Protocol: as §1

[12] = tested on: S. aureus ATCC 25923 (Sa 23); assay: MIC, broth microdilution, Sa 23; format: cell-based; settings: for MIC: Staphylococcus aureus, read-out: Minimum inhibitory concentration (MIC) Sa 23; for Minimum inhibitory concentration (MIC) Sa 23: Table 1, HT series
Protocol: as §1

[13] = ATCC700699, Table 2, HTM series
[14] = ATCC700699, Table 1, HT series, replicates from different days separated by comma
[15] = replicates from different days separated by comma
[16] = ATCC29212, Table 1, HT series, replicates from different days separated by comma
[17] = ATCC25923, Table 1, HT series, replicates from different days separated by comma

Compound	MIC [1] [µg/mL]	MIC [2] [µg/mL]	MIC [3] [µg/mL]	MIC [4] [µg/mL]	MIC [5, 13] [µg/mL]	MIC ([6]; ATCC29212, Table 2, HTM series) [µg/mL]	MIC [7] [µg/mL]	MIC [8] [µg/mL]	MIC [9] [µg/mL]	MIC [10] [µg/mL]	MIC [11] [µg/mL]	MIC ([12]; ATCC25923, Table 2, HTM series) [µg/mL]	MIC [5, 14] [µg/mL]	Minimum inhibitory concentration (MIC) Sa 99 [5, 15]	MIC [6, 16] [µg/mL]	Minimum inhibitory concentration (MIC) Efs 12 [6, 15]	MIC [12, 17] [µg/mL]	Minimum inhibitory concentration (MIC) Sa 23 [12, 15]
NC(=O)c1cc(-c2csc(-c3ccc(O)c(O)c3)n2)ccc1O [Compound 16, 5-(2-(3,4-dihydroxyphenyl)thiazol-4-yl)-2-hydroxybenzamide]													> 32	>32, >32 μg/mL	> 32	>32, >32 μg/mL	> 32	>32, >32 μg/mL
Oc1ccc(-c2nc(-c3ccc(-c4ccccc4)cc3)cs2)cc1O [Compound 15, 4-(4-([1,1′-biphenyl]-4-yl)thiazol-2-yl)benzene-1,2-diol]													> 32	>32, >32 μg/mL	> 32	>32, >32 μg/mL	> 32	>32, >32 μg/mL
Cc1ccc(Nc2nc(-c3ccc(O)cc3)cs2)cc1Cl [Compound 67, 4-(2-((3-chloro-4-methylphenyl)amino)thiazol-4-yl)phenol]	4 (≈ 12.6 µM)	8 (≈ 25.3 µM)	4 (≈ 12.6 µM)	4 (≈ 12.6 µM)	4 (≈ 12.6 µM)	8 (≈ 25.3 µM)	4 (≈ 12.6 µM)	4 (≈ 12.6 µM)	4 (≈ 12.6 µM)	4 (≈ 12.6 µM)	8 (≈ 25.3 µM)	4 (≈ 12.6 µM)						
Oc1ccc(-c2csc(-c3ccc(Cl)c(Cl)c3)n2)cc1 [Compound 65, 4-(2-(3,4-dichlorophenyl)thiazol-4-yl)phenol]	1 (≈ 3.1 µM)	1 (≈ 3.1 µM)	2 (≈ 6.21 µM)	2 (≈ 6.21 µM)	1 (≈ 3.1 µM)	2 (≈ 6.21 µM)	1 (≈ 3.1 µM)	2 (≈ 6.21 µM)	1 (≈ 3.1 µM)	1 (≈ 3.1 µM)	2 (≈ 6.21 µM)	1 (≈ 3.1 µM)						

Continued, values first:

MIC [1] [µg/mL]	MIC [2] [µg/mL]	MIC [3] [µg/mL]	MIC [4] [µg/mL]	MIC [5, 13] [µg/mL]	MIC ([6]; ATCC29212, Table 2, HTM series) [µg/mL]	MIC [7] [µg/mL]	MIC [8] [µg/mL]	MIC [9] [µg/mL]	MIC [10] [µg/mL]	MIC [11] [µg/mL]	MIC ([12]; ATCC25923, Table 2, HTM series) [µg/mL]	MIC [5, 14] [µg/mL]	Minimum inhibitory concentration (MIC) Sa 99 [5, 15]	MIC [6, 16] [µg/mL]	Minimum inhibitory concentration (MIC) Efs 12 [6, 15]	MIC [12, 17] [µg/mL]	Minimum inhibitory concentration (MIC) Sa 23 [12, 15]	Compound
8 (≈ 23.7 µM)	8 (≈ 23.7 µM)	8 (≈ 23.7 µM)	8 (≈ 23.7 µM)	8 (≈ 23.7 µM)	16 (≈ 47.4 µM)	8 (≈ 23.7 µM)	8 (≈ 23.7 µM)	4 (≈ 11.9 µM)	8 (≈ 23.7 µM)	8 (≈ 23.7 µM)	4 (≈ 11.9 µM)							Oc1ccc(-c2csc(-c3ccc(C(F)(F)F)cc3)n2)cc1O [Compound 47, 4-{2-[4-(trifluoromethyl)phenyl]-1,3-thiazol-4-yl}benzene-1,2-diol]
												> 32	>32, >32 μg/mL	> 32	>32, >32 μg/mL	> 32	>32, >32 μg/mL	O=C(O)c1ccc(-c2csc(-c3ccc(O)c(O)c3)n2)cc1 [Compound 13, 4-(2-(3,4-dihydroxyphenyl)thiazol-4-yl)benzoic acid]
												> 32	>32, >32 μg/mL	> 32	>32, >32 μg/mL	> 32	>32, >32 μg/mL	N#Cc1ccc(-c2csc(-c3ccc(O)c(O)c3)n2)cc1 [Compound 12, 4-(2-(3,4-dihydroxyphenyl)thiazol-4-yl)benzonitrile]
												32 (≈ 107 µM)	32, 32 μg/mL	> 32	>32, >32 μg/mL	16 (≈ 53.4 µM)	16, 16 μg/mL	COc1ccc(-c2csc(-c3ccc(O)c(O)c3)n2)cc1 [Compound 7, 4-(4-(4-methoxyphenyl)thiazol-2-yl)benzene-1,2-diol]
